Test results from ChEMBL document CHEMBL4808180, “Identification of 2,2-Dimethylbutanoic Acid (HST5040), a Clinical Development Candidate for the Treatment of Propionic Acidemia and Methylmalonic Acidemia” (J Med Chem, 2021).

Columns and labels:
[1] = Reduction of propionyl-CoA in human hepatocytes derived from propionic acidemia patient at 100 uM pretreated for 30 mins followed by 13C-isoleucine addition and measured after 1 hr by MS/MS analysis relative to control; assay type: functional, Hepatocyte; design: scale not given: the % may be the effect or the level left; settings: time 90 min, 1.5 h
[2] = Reduction of propionyl-CoA in human hepatocytes derived from propionic acidemia patient pretreated for 30 mins followed by 13C-isoleucine addition and measured after 1 hr by MS/MS analysis; assay type: functional, cell-based; settings: hepatocyte

Compound | Activity [1] [%] | EC50 [2] [µM]
CSCCCC(=O)O | 78 | 18.9
CCCC(CC)C(=O)O (stereo unspecified) | 98 | 1.23
CC(C)(C)C(=O)O [PIVALATE] | 77 | 5.53
CCCC(CCC)C(=O)OC | 63 | > 100
O=C(O)C1CC1 [CYCLOPROPANE CARBOXYLIC ACID] | 66 | 23.3
CCC(CC)C(=O)O | 67 | 33.7
O=C(O)C1CCC1 | 49 | 55.4
CC1(CC(=O)O)CC1 | 65 | 15.5
CNCCC(=O)O | 64 | 6.55
CCC(C)(C)C(=O)OC | 91 | 1.73
CC(CCO)C(=O)O (stereo unspecified) | 66 | > 100
O=C(O)C1CCCC1 | 42 | 12.3
COCC(C)(C)C(=O)O | 75 | 2.69
CCC(C)(C)C(N)=O | 57 | > 100
O=C(O)CCCC(F)(F)F | 65 | 9.91
CC(C)(C)CC(=O)O [T-BUTYLACETIC ACID] | 97 | 0.91
CCCC(C)C(=O)O (stereo unspecified) | 77 | 12.6
CCCC(C)(C)C(=O)O | 96 | 0.76
